Among the test systems are HCT-15 colon; HL-60(TB) leukemia; HOP-62 NSCLC; HT29 colon; IGROV1 ovarian; SF-539 CNS; SK-MEL-28 melanoma; TK-10 renal; CAKI-1 renal; SK-OV-3 ovarian.
Common to all, as to test: DTP human tumour cell line panel, 48 h

Molecules are shown by their SMILES. Several values for one entry are separate records, joined by “and”; a condition that tells them apart may be missing. Equal entries are not always repeated.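 Following 48 hours of exposure in 96-well plates, responses at five concentrations were used to interpolate endpoints linearly. Abbreviation: GI50, concentration required for 50% inhibition of growth. TGI marks complete inhibition of growth.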

What is called TGI is the concentration at which net growth stops. Read a low TGI as greater sensitivity of the cells. On to `C=CCCC1(CCP(=O)(c2ccccc2)c2ccccc2)OCCO1`, for which the concentration for total growth inhibition (TGI) with HCT-15 colon, in the assay with HL-60(TB) leukemia, with HOP-62 NSCLC, with HT29 colon, in the assay on IGROV1 ovarian and in the assay on SF-539 CNS was above 100 µM each time. The TGI in the assay with SK-MEL-28 melanoma and in the assay with TK-10 renal was above 100 µM each time.

With `CC(C)C12CCC3(CCC4C(C)(C(=O)O)CCCC4(C)C3C1)C(CN)C2` (stereo not given), the TGI in the assay on CAKI-1 renal is above 100 µM; in the assay on HCT-15 colon, above 100 µM; in the assay with HOP-62 NSCLC, above 100 µM; with HT29 colon, 47.2 µM; with IGROV1 ovarian, above 100 µM; with SF-539 CNS it was 78.9 µM. The TGI with SK-MEL-28 melanoma, in the assay with SK-OV-3 ovarian and in the assay with TK-10 renal was above 100 µM throughout.

The term GI50 denotes the concentration giving 50% growth inhibition. On to `Clc1ccc(N=CNc2ccc(-c3nc4ccccc4[nH]3)cc2)cc1`, for which the GI50 is 0.827 µM in the assay on CAKI-1 renal; 33.1 µM with HCT-15 colon; 0.631 µM in the assay on HL-60(TB) leukemia; above 100 µM in the assay on HOP-62 NSCLC; above 100 µM with IGROV1 ovarian; 22.8 µM with SK-MEL-28 melanoma. Further, the GI50 with SK-OV-3 ovarian was above 100 µM; in the assay with TK-10 renal it was 7.52 µM. Moreover, the TGI in the assay with CAKI-1 renal was 42.5 µM; with HCT-15 colon, above 100 µM; in the assay on HL-60(TB) leukemia it was above 100 µM; with HOP-62 NSCLC, above 100 µM; in the assay on IGROV1 ovarian, above 100 µM; in the assay on SK-MEL-28 melanoma, 63.6 µM. The TGI with SK-OV-3 ovarian and with TK-10 renal was above 100 µM each time.

For `CCCCCCCCCCCCCCCC(=O)NCC(OCC)OCC`, the TGI in the assay with HCT-15 colon, in the assay on HL-60(TB) leukemia, in the assay with HOP-62 NSCLC, in the assay with HT29 colon, with IGROV1 ovarian and in the assay on SF-539 CNS was above 100 µM each time. Moreover, the TGI in the assay with SK-MEL-28 melanoma, in the assay on SK-OV-3 ovarian and in the assay with TK-10 renal was above 100 µM in each case.

For `CC(=O)OCc1cc2c(s1)C(=O)c1sccc1C2=O`, the total growth inhibition concentration (TGI) with CAKI-1 renal was 3.24 µM; in the assay with HCT-15 colon it was 0.303 µM; in the assay with HT29 colon it was 1.43 µM; in the assay on IGROV1 ovarian it was 2.79 µM; with SF-539 CNS, 0.285 µM; in the assay with SK-MEL-28 melanoma, 0.0721 µM. The values for the TGI in the assay with SK-OV-3 ovarian and in the assay with TK-10 renal were 3.3 µM and 3.73 µM, respectively.

In the case of `CN(C)c1ccc(/C=C2\Cc3ccccc3C2=O)cc1Br`, the concentration for total growth inhibition (TGI) in the assay with CAKI-1 renal, in the assay with HCT-15 colon, in the assay with HOP-62 NSCLC, in the assay with HT29 colon, in the assay with IGROV1 ovarian and in the assay with SK-MEL-28 melanoma was above 100 µM in each case. Besides, the concentration for total growth inhibition (TGI) in the assay on SK-OV-3 ovarian and in the assay with TK-10 renal was above 100 µM each time.

As to `CCn1c(SC)nnc1-c1cc2c([nH]c3ccccc32)c(-c2cccc(O)c2)n1`, the GI50 was 0.95 µM in the assay with HCT-15 colon; 0.929 µM in the assay with HL-60(TB) leukemia; 2.87 µM in the assay on HOP-62 NSCLC; 3.41 µM with HT29 colon; 2.57 µM in the assay with IGROV1 ovarian; 1.46 µM with SF-539 CNS. For the same molecule, the figures for the GI50 in the assay on SK-MEL-28 melanoma, in the assay with SK-OV-3 ovarian and with TK-10 renal were 2.69 µM, 2.44 µM and 2.68 µM, respectively. In addition, the concentration for total growth inhibition (TGI) with HCT-15 colon turned out to be 51.6 µM; in the assay with HL-60(TB) leukemia, 7.86 µM; in the assay with HOP-62 NSCLC, 15.8 µM; in the assay on HT29 colon it was 12.5 µM; in the assay with IGROV1 ovarian, 52 µM; in the assay with SF-539 CNS, 3.74 µM. For the same molecule, the TGI was found to be 21 µM with SK-MEL-28 melanoma, 6.3 µM in the assay on SK-OV-3 ovarian and 13.1 µM with TK-10 renal.

`Cc1cc(C2(c3cc(C)c(O)c4ncccc34)OC(=O)c3ccccc32)c2cccnc2c1O`: the TGI in the assay on CAKI-1 renal was 1.07 µM; with HOP-62 NSCLC it was above 100 µM; in the assay on HT29 colon, above 100 µM; in the assay on IGROV1 ovarian, 7.94 µM and 21.9 µM; in the assay on SF-539 CNS it was 4.69 µM and 11.7 µM; in the assay on SK-MEL-28 melanoma, above 100 µM. In the assay on SK-OV-3 ovarian, the concentration for total growth inhibition (TGI) amounted to 21.9 µM. Besides, the GI50 with HOP-62 NSCLC is 0.643 µM; with HT29 colon, 0.106 µM; in the assay on SF-539 CNS it was 0.02 µM; with SK-MEL-28 melanoma, above 100 µM.

Consider `O=[N+]([O-])C1(CO)COC(CCc2ccccc2)OC1` (stereo not given), for which the TGI in the assay with HCT-15 colon, with HL-60(TB) leukemia, in the assay with HOP-62 NSCLC, in the assay with HT29 colon, with IGROV1 ovarian and in the assay on SF-539 CNS was above 100 µM in each case. Moreover, the TGI in the assay on SK-MEL-28 melanoma, with SK-OV-3 ovarian and in the assay on TK-10 renal was above 100 µM throughout.

On to `N#Cc1c(N)nc(N2CCOCC2)c(C#N)c1-c1ccc(Cl)cc1Cl`, for which the GI50 with CAKI-1 renal is 18.6 µM; in the assay with HCT-15 colon, 15.5 µM; in the assay on HOP-62 NSCLC, 28 µM; in the assay with HT29 colon it was 16.4 µM; in the assay on IGROV1 ovarian it was 6.64 µM; with SF-539 CNS, 17.9 µM. In addition, the GI50 in the assay on SK-MEL-28 melanoma is 18.4 µM; in the assay on SK-OV-3 ovarian, 22.2 µM. The TGI in the assay on CAKI-1 renal was found to be 46.8 µM; with HCT-15 colon it was 56.4 µM; with HOP-62 NSCLC, 91.6 µM; with HT29 colon it was 39.3 µM; with IGROV1 ovarian, 23.6 µM; with SF-539 CNS, 42.1 µM. Also, the TGI in the assay with SK-MEL-28 melanoma is 53.1 µM; with SK-OV-3 ovarian, 91.1 µM.

As for `CCNc1nc(-c2ccc(Cl)c(OC)c2)c(-c2ccnc(NCCNS(=O)(=O)c3ccc(Cl)cc3)n2)s1`, the GI50 in the assay with HCT-15 colon was 3.36 µM; in the assay on HL-60(TB) leukemia, 2.87 µM; in the assay with HOP-62 NSCLC, 3.2 µM; in the assay on HT29 colon, 2.92 µM; with IGROV1 ovarian, 4.68 µM; in the assay on SF-539 CNS, 2.51 µM. For the same molecule, the GI50 with SK-MEL-28 melanoma is 3.33 µM; in the assay on SK-OV-3 ovarian, 3.66 µM; in the assay on TK-10 renal, 4.09 µM. For the same molecule, the TGI in the assay on HCT-15 colon is above 100 µM; in the assay on HL-60(TB) leukemia, 7.16 µM; in the assay on HOP-62 NSCLC it was 7.69 µM; in the assay on HT29 colon it was 20.1 µM; with IGROV1 ovarian, above 100 µM; with SF-539 CNS, 6.63 µM. Moreover, the TGI with SK-MEL-28 melanoma is above 100 µM; in the assay on SK-OV-3 ovarian it was 55.1 µM; in the assay with TK-10 renal, 41.8 µM.

The record behind these values is PubChem BioAssay (NCI).
